US9113629B2, “4-amino-6-(4-substituted-phenyl)-picolinates and 6-amino-2-(4-substituted-phenyl)-pyrimidine-4-carboxylates and their use as herbicides” (DOW AGROSCIENCES LLC, priority 2013, dated 2015)
Read-outs that look alike come from different tables or passages of the source.

How the values were obtained:
Assay type in all cases: in vivo
[1] = tested on: test plant species in Direct Seeded Rice; assay: Postemergence herbicidal activity in direct seeded rice (Table 13); details: for GR50 BRAPP / GR80 BRAPP / GR50 CYPSS / GR80 CYPSS / GR50 ECHSS / GR80 ECHSS / GR50 LEFSS / GR80 LEFSS / GR20 ORYSS / GR50 SEBEX / GR80 SEBEX / GR50 SCPJU / GR80 SCPJU: probit analysis; for GR20 ORYSS: ORYSS: Oryza sativa (crop); for pest or weed control at 35 g/ha / pest or weed control at 70 g/ha: post-emergence, 504 h; for pest or weed control at 35 g/ha: 35 g ai/ha; for pest or weed control at 70 g/ha: 70 g ai/ha
Method in brief: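 Greenhouse-grown plants at the second or third true leaf stage were sprayed postemergence at 187 L/ha with compound in acetone/DMSO (final 16.2%/0.5%) plus aqueous Agri-dex crop oil concentrate; controls got solvent blank. Injury was rated visually 0–100% after 20-22 days, and GR20, GR50, GR80 and GR90 derived by probit analysis.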

[2] = tested on: LOLSS: ryegrass including, Italian ryegrass (Lolium multiflorum), rigid ryegrass (Lolium rigidum), annual ryegrass (Lolium multiflorum subsp. Gaudini); assay: Post-emergent Test III, herbicidal activity in wheat and barley; details: probit analysis
Method in brief: (§1)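 Plants at the second to third true-leaf stage, grown in a greenhouse at about 18/17 °C with a 14 h photoperiod, were sprayed post-emergence at 187 L/ha with the high rate and ½× to 1/16× serial dilutions in an acetone/DMSO/crop-oil/surfactant carrier. Injury was rated visually at 21 d on a 0–100% scale, and GR20–GR90 were derived by probit analysis.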

LAMSS = assay: as above; details: for pest or weed control at 35 g/ha / pest or weed control at 70 g/ha / pest or weed control at 140 g/ha: post-emergence, 504 h, read-out: Visual Growth Reduction (%) 21 Days After Application LAMSS; for pest or weed control at 35 g/ha: 35 g ai/ha; for pest or weed control at 70 g/ha: 70 g ai/ha; for pest or weed control at 140 g/ha: 140 g ai/ha; for GR50 LAMSS / GR80 LAMSS: probit analysis, 21 days after application; for GR50 LAMSS: dose for growth reduction of 50 percent; for GR80 LAMSS: dose for growth reduction of 80 percent
Method in brief: as §1

[3] = BRAPP: broadleaf signalgrass, Brachiaria platyphylla
[4] = CYPSS: sedge (Cyperus difformis, esculentus, iria)
[5] = ECHSS: barnyardgrass (Echinochloa crus-galli), junglerice (Echinochloa colonum)
[6] = LEFSS: sprangletop (Leptochloa chinensis, Leptochloa dubia)
[7] = SEBEX: hemp sesbania, Sesbania exaltata
[8] = BRAPP: broadleaf signalgrass, Brachiaria platyphylla, read-out: Visual Growth Reduction (%) 21 Days After Application BRAPP
[9] = CYPSS: sedge (Cyperus difformis, esculentus, iria), read-out: Visual Growth Reduction (%) 21 Days After Application CYPSS
[10] = ECHSS: barnyardgrass (Echinochloa crus-galli), junglerice (Echinochloa colonum), read-out: Visual Growth Reduction (%) 21 Days After Application ECHSS
[11] = LEFSS: sprangletop (Leptochloa chinensis, Leptochloa dubia), read-out: Visual Growth Reduction (%) 21 Days After Application LEFSS
[12] = ORYSS: Oryza sativa, read-out: Visual Growth Reduction (%) 21 Days After Application ORYSS
[13] = SEBEX: hemp sesbania, Sesbania exaltata, read-out: Visual Growth Reduction (%) 21 Days After Application SEBEX
[14] = Table 9, dose for 50 percent growth reduction, 21 d
[15] = Table 9, dose for 80 percent growth reduction, 21 d
[16] = SCPJU: Japanese bulrush, Scirpus juncoides
[17] = SCPJU: Japanese bulrush, Scirpus juncoides, read-out: Visual Growth Reduction (%) 21 Days After Application SCPJU

SMILES	GR50 BRAPP [1, 3]	GR80 BRAPP [1, 3]	GR50 CYPSS [1, 4]	GR80 CYPSS [1, 4]	GR50 ECHSS [1, 5]	GR80 ECHSS [1, 5]	GR50 LEFSS [1, 6]	GR80 LEFSS [1, 6]	GR20 ORYSS [1]	GR50 SEBEX [1, 7]	GR80 SEBEX [1, 7]	pest or weed control at 35 g/ha [1, 8]	pest or weed control at 70 g/ha [1, 8]	pest or weed control at 35 g/ha [1, 9]	pest or weed control at 70 g/ha [1, 9]	pest or weed control at 35 g/ha [1, 10]	pest or weed control at 70 g/ha [1, 10]	pest or weed control at 35 g/ha [1, 11]	pest or weed control at 70 g/ha [1, 11]	pest or weed control at 35 g/ha [1, 12]	further results
COC(=O)c1nc(-c2ccc(C(F)(F)F)c(F)c2)c(F)c(N)c1Cl [Compound 165]	12 g ai/ha	27 g ai/ha	19 g ai/ha	67 g ai/ha	10 g ai/ha	24 g ai/ha	24 g ai/ha	56 g ai/ha	44 g ai/ha	1 g ai/ha	1 g ai/ha	85 to 94%	95 to 100%	75 to 84%	75 to 84%	85 to 94%	95 to 100%	0 to 29%	95 to 100%	0 to 29%	pest or weed control at 70 g/ha [1, 12]: 30 to 44%; pest or weed control at 35 g/ha [1, 13]: 95 to 100%; pest or weed control at 70 g/ha [1, 13]: 95 to 100%
Nc1cc(-c2ccc(Br)cc2)nc(C(=O)O)c1Cl [Compound 168]																					GR50 LOLSS [2, 14]: 108 g ai/ha; GR80 LOLSS [2, 15]: >140 g ai/ha
COC(=O)c1nc(-c2ccc(Br)c(F)c2F)nc(N)c1OC [Compound 122, methyl 6-amino-2-(4-bromo-2,3-difluorophenyl)-5-methoxypyrimidine-4-carboxylate]	5 g ai/ha	42 g ai/ha	1 g ai/ha	1 g ai/ha	6 g ai/ha	47 g ai/ha	>70 g ai/ha	>70 g ai/ha	70 g ai/ha	1 g ai/ha	1 g ai/ha	75 to 84%	85 to 94%	95 to 100%	95 to 100%	75 to 84%	85 to 94%	0 to 29%	0 to 29%	0 to 29%	GR50 SCPJU [1, 16]: 1 g ai/ha; GR80 SCPJU [1, 16]: 1 g ai/ha; pest or weed control at 70 g/ha [1, 12]: 0 to 29%; pest or weed control at 35 g/ha [1, 17]: 95 to 100%; pest or weed control at 70 g/ha [1, 17]: 95 to 100%; pest or weed control at 35 g/ha [1, 13]: 95 to 100%; pest or weed control at 70 g/ha [1, 13]: 95 to 100%
COC(=O)c1nc(-c2ccc(F)cc2)c(F)c(N)c1Cl [Compound 204]																					pest or weed control at 35 g/ha (LAMSS): 85 to 94%; pest or weed control at 70 g/ha (LAMSS): 95 to 100%; pest or weed control at 140 g/ha (LAMSS): 95 to 100%; GR50 LAMSS (LAMSS): 1 g ai/ha; GR80 LAMSS (LAMSS): 8 g ai/ha
C#Cc1ccc(-c2nc(N)c(OC)c(C(=O)O)n2)cc1 [Compound 28]																					GR50 LOLSS [2, 14]: >140 g ai/ha; GR80 LOLSS [2, 15]: >140 g ai/ha
COC(=O)c1nc(-c2ccc(F)c(F)c2F)c(F)c(N)c1Cl [Compound 186]																					GR50 LOLSS ([2]; dose for growth reduction of 50 percent, 21 days after application): >140 g ai/ha; GR80 LOLSS ([2]; dose for growth reduction of 80 percent, 21 days after application): >140 g ai/ha; pest or weed control at 35 g/ha (LAMSS): 75 to 84%; pest or weed control at 70 g/ha (LAMSS): 85 to 94%; pest or weed control at 140 g/ha (LAMSS): 85 to 94%; GR50 LAMSS (LAMSS): 1 g ai/ha; GR80 LAMSS (LAMSS): 25 g ai/ha
Nc1c(F)c(-c2ccc(C(F)(F)F)c(F)c2)nc(C(=O)O)c1Cl [Compound 134]	3 g ai/ha	12 g ai/ha	6 g ai/ha	13 g ai/ha	1 g ai/ha	1 g ai/ha	6 g ai/ha	15 g ai/ha	5 g ai/ha	1 g ai/ha	1 g ai/ha	95 to 100%	95 to 100%	95 to 100%	95 to 100%	95 to 100%	95 to 100%	95 to 100%	95 to 100%	60 to 74%	GR50 SCPJU [1, 16]: 1 g ai/ha; GR80 SCPJU [1, 16]: 1 g ai/ha; pest or weed control at 70 g/ha [1, 12]: 85 to 94%; pest or weed control at 70 g/ha [1, 17]: 95 to 100%; pest or weed control at 35 g/ha [1, 13]: 95 to 100%; pest or weed control at 70 g/ha [1, 13]: 95 to 100%
